Results as given in PubChem BioAssay AID330 (DTP/NCI, 2004).
Values joined by “and” are separate entries in the source; they are usually repeats but may differ in a detail not shown here. Identical values can stand only once. Toxic doses and inconclusive results are not listed. Numbered stars: 1 amine (or outer) side, 2 acyl side, 3 side chain; on linkers, the order of the positions; unused ones are H or OH. Bridge positions count the residues as written; N and C are the ends. Square brackets hold non-standard residues; d marks the D form. Peptide text beside a SMILES is read from it. ξ: configuration not given here. X15 = O=C(/C(=C/c1c[nH]c2ccccc12)N[*:1])[*:2]; X16 = CC(c1c[nH]c2ccccc12)C(N[*:1])C(=O)[*:2]; βAsp = O=C(O)[CH](CC(=O)[*:2])N[*:1]; ξLeu(3ξ-OH) = CC(C)C(O)C(N)C(=O)O; X14 = O=C(C1C(O)CCN1[*:1])[*:2]

Tested on: P388 leukemia ip, CD2F1 mice, survival T/C
Assay: NCI In Vivo Anticancer Drug Screen. Data for tumor model P388 Leukemia (intraperitoneal) in CD2F1 (CDF1) mice
Details: endpoint: median survival time, higher = longer survival
Procedure, shortened: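 Mice carrying the transplanted tumor received test compound or vehicle. Survival was recorded in each group, and the value is the treated-group measurement divided by that of the vehicle-treated control group.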

[1] = dose: 50.0 mg/kg/injection, schedule: Q01DX005 (ip), vehicle: saline
[2] = dose: 200.0 mg/kg/injection, schedule: Q01DX009 (ip), vehicle: saline
[3] = dose: 50.0 mg/kg/injection, schedule: Q01DX009 (ip), vehicle: saline
[4] = dose: 100.0 mg/kg/injection, schedule: Q01DX009 (ip), vehicle: saline
[5] = dose: 100.0 mg/kg/injection, schedule: Q01DX009 (ip), vehicle: saline with Tween-80
[6] = dose: 200.0 mg/kg/injection, schedule: Q01DX009 (ip), vehicle: saline with Tween-80
[7] = dose: 400.0 mg/kg/injection, schedule: Q01DX009 (ip), vehicle: saline with Tween-80

O=C1C=C(Br)C(=O)C(Br)=C1
T/C (dose: 1.56 mg/kg/injection, schedule: Q01DX009 (ip), vehicle: distilled water + Tween-80): 101 % of control | T/C (dose: 3.13 mg/kg/injection, schedule: Q01DX009 (ip), vehicle: distilled water + Tween-80): 95 % of control | T/C (dose: 6.25 mg/kg/injection, schedule: Q01DX009 (ip), vehicle: distilled water + Tween-80): 100 % of control

COC(=O)C(CC(C)C)NC(=O)C(Cc1c[nH]c2ccccc12)NC(=O)OC(C)(C)C (configuration not stated)
T/C (dose: 10.7 mg/kg/injection, schedule: Q01DX009 (ip), vehicle: other): 100 % of control | T/C (dose: 21.3 mg/kg/injection, schedule: Q01DX009 (ip), vehicle: other): 93 % of control | T/C (dose: 42.5 mg/kg/injection, schedule: Q01DX009 (ip), vehicle: other): 93 % of control | T/C (dose: 85.0 mg/kg/injection, schedule: Q01DX009 (ip), vehicle: other): 93 % of control | T/C (dose: 170.0 mg/kg/injection, schedule: Q01DX009 (ip), vehicle: other): 98 % of control

CCOC(=O)C(N)CSC(=O)NC (configuration not stated)
T/C (dose: 10.4 mg/kg/injection, schedule: Q03HX024 (ip), vehicle: saline): 118 % of control | T/C (dose: 20.8 mg/kg/injection, schedule: Q03HX024 (ip), vehicle: saline): 124 % of control | T/C (dose: 25.0 mg/kg/injection, schedule: Q01DX005 (ip), vehicle: saline): 108 % of control | T/C (dose: 27.7 mg/kg/injection, schedule: Q01DX009 (ip), vehicle: saline): 119 % of control | T/C (dose: 27.7 mg/kg/injection, schedule: Q01DX009 (oral), vehicle: saline): 109 % of control | T/C (dose: 31.2 mg/kg/injection, schedule: Q03HX008 (ip), vehicle: saline): 111 % of control | T/C [1]: 112 % of control and 114 % of control (2×) | T/C (dose: 50.0 mg/kg/injection, schedule: Q01DX005 (iv), vehicle: saline): 101 % of control | T/C (dose: 55.5 mg/kg/injection, schedule: Q01DX009 (oral), vehicle: saline): 111 % of control | T/C (dose: 62.5 mg/kg/injection, schedule: Q03HX008 (ip), vehicle: saline): 120 % of control | T/C (dose: 83.3 mg/kg/injection, schedule: Q03HX024 (ip), vehicle: saline): 162 % of control | T/C (dose: 83.3 mg/kg/injection, schedule: Q04DX003 (ip), vehicle: saline): 113 % of control | T/C (dose: 100.0 mg/kg/injection, schedule: Q01DX005 (iv), vehicle: saline): 106 % of control | T/C (dose: 111.1 mg/kg/injection, schedule: Q01DX009 (oral), vehicle: saline): 120 % of control | T/C (dose: 133.0 mg/kg/injection, schedule: Q01DX009 (ip), vehicle: saline): 152 % of control | T/C (dose: 166.6 mg/kg/injection, schedule: Q03HX024 (ip), vehicle: saline): 187 % of control | T/C (dose: 166.6 mg/kg/injection, schedule: Q04DX003 (ip), vehicle: saline): 120 % of control | T/C (dose: 200.0 mg/kg/injection, schedule: Q01DX005 (iv), vehicle: saline): 118 % of control | T/C [2]: 154 % of control | T/C (dose: 222.2 mg/kg/injection, schedule: Q01DX009 (ip), vehicle: saline): 156 % of control | T/C (dose: 250.0 mg/kg/injection, schedule: Q01DX001 (ip), vehicle: saline): 114 % of control | T/C (dose: 250.0 mg/kg/injection, schedule: Q01DX001 (iv), vehicle: saline): 92 % of control | T/C (dose: 300.0 mg/kg/injection, schedule: Q01DX009 (ip), vehicle: saline): 170 % of control | T/C (dose: 444.4 mg/kg/injection, schedule: Q01DX009 (ip), vehicle: saline): 169 % of control | T/C (dose: 444.4 mg/kg/injection, schedule: Q01DX009 (oral), vehicle: saline): 155 % of control | T/C (dose: 500.0 mg/kg/injection, schedule: Q01DX001 (ip), vehicle: saline): 117 % of control | T/C (dose: 500.0 mg/kg/injection, schedule: Q01DX001 (iv), vehicle: saline): 102 % of control | T/C (dose: 666.6 mg/kg/injection, schedule: Q04DX003 (ip), vehicle: saline): 153 % of control | T/C (dose: 888.8 mg/kg/injection, schedule: Q01DX009 (oral), vehicle: saline): 195 % of control | T/C (dose: 1000.0 mg/kg/injection, schedule: Q01DX001 (ip), vehicle: saline): 119 % of control

CCN(CC)CN1C(=O)CC2(C1=O)c1ccccc1-c1ccccc12
T/C (dose: 100.0 mg/kg/injection, schedule: Q01DX001 (ip), vehicle: water): 109 % of control | T/C (dose: 200.0 mg/kg/injection, schedule: Q01DX001 (ip), vehicle: water): 106 % of control | T/C (dose: 400.0 mg/kg/injection, schedule: Q01DX001 (ip), vehicle: water): 110 % of control

OCC(O)C(O)C(O)C(O)CO.[Cu+2].[Cu] (configuration not stated)
T/C (dose: 3.12 mg/kg/injection, schedule: Q01DX005 (ip), vehicle: Klucel (hydroxypropylcellulose) (HPC)): 88 % of control | T/C (dose: 6.25 mg/kg/injection, schedule: Q01DX005 (ip), vehicle: Klucel (hydroxypropylcellulose) (HPC)): 92 % of control

O=[N+]([O-])C(CO)CCC(CO)[N+](=O)[O-] (configuration not stated)
T/C (dose: 100.0 mg/kg/injection, schedule: Q04DX003 (ip), vehicle: Klucel (hydroxypropylcellulose) (HPC)): 96 % of control | T/C (dose: 200.0 mg/kg/injection, schedule: Q04DX003 (ip), vehicle: Klucel (hydroxypropylcellulose) (HPC)): 98 % of control | T/C (dose: 400.0 mg/kg/injection, schedule: Q04DX003 (ip), vehicle: Klucel (hydroxypropylcellulose) (HPC)): 88 % of control

CC(/C=C/c1ccccc1)=N\NC(N)=O
T/C [3]: 105 % of control | T/C [4]: 115 % of control | T/C [2]: 118 % of control

O/N=C(\CC(O)(C(F)(F)F)C(F)(F)F)c1cccs1
T/C (dose: 100.0 mg/kg/injection, schedule: Q04DX003 (ip), vehicle: saline with Tween-80): 100 % of control | T/C (dose: 200.0 mg/kg/injection, schedule: Q04DX003 (ip), vehicle: saline with Tween-80): 95 % of control | T/C (dose: 400.0 mg/kg/injection, schedule: Q04DX003 (ip), vehicle: saline with Tween-80): 108 % of control

CCOC(=O)CCC(NC(=O)c1ccc(N(C)CCC(C)=O)cc1)C(=O)OCC (configuration not stated)
T/C (dose: 50.0 mg/kg/injection, schedule: Q01DX009 (ip), vehicle: saline with Tween-80): 111 % of control | T/C [5]: 111 % of control | T/C [6]: 102 % of control | T/C [7]: 97 % of control

Cc1cc(NS(=O)(=O)c2ccc(N=c3c4ccccc4n(-c4ccccc4)c4ccccc34)cc2)no1
T/C (dose: 50.0 mg/kg/injection, schedule: Q01DX005 (ip), vehicle: saline with Tween-80): 103 % of control | T/C (dose: 100.0 mg/kg/injection, schedule: Q01DX005 (ip), vehicle: saline with Tween-80): 92 % of control | T/C (dose: 200.0 mg/kg/injection, schedule: Q01DX005 (ip), vehicle: saline with Tween-80): 90 % of control

COc1cccc2c1C(=O)C(C1CO1)=CC2=O (configuration not stated)
T/C (dose: 12.5 mg/kg/injection, schedule: Q01DX001 (ip), vehicle: Klucel (hydroxypropylcellulose) (HPC)): 88 % of control | T/C (dose: 25.0 mg/kg/injection, schedule: Q01DX001 (ip), vehicle: Klucel (hydroxypropylcellulose) (HPC)): 95 % of control

CC1NC(=O)C(C(C)O)NC(=O)C(NC(=O)C(CO)NC(=O)CC(N)C(=O)O)C(C)OC(=O)C2C(O)CCN2C(=O)C(C(O)C(C)C)NC(=O)C(C(C)c2c[nH]c3ccccc23)NC(=O)/C(=C/c2c[nH]c3ccccc23)NC(=O)C2C(O)CCN2C(=O)CNC1=O (configuration not stated) (βAsp-STTAG[X14][X15][X16][ξLeu(3ξ-OH)][X14]; ester 2-C; configuration not given here)
T/C [5]: 105 % of control | T/C [6]: 89 % of control | T/C [7]: 91 % of control

CC(NNC(=S)N(C)C1CCCCC1)c1nccc2ccccc12 (configuration not stated)
T/C (dose: 30.12 mg/kg/injection, schedule: Q01DX001 (ip), vehicle: Klucel (hydroxypropylcellulose) (HPC)): 101 % of control and 102 % of control | T/C (dose: 60.25 mg/kg/injection, schedule: Q01DX001 (ip), vehicle: Klucel (hydroxypropylcellulose) (HPC)): 103 % of control and 107 % of control and 108 % of control | T/C (dose: 120.5 mg/kg/injection, schedule: Q01DX001 (ip), vehicle: Klucel (hydroxypropylcellulose) (HPC)): 114 % of control and 115 % of control | T/C (dose: 241.0 mg/kg/injection, schedule: Q01DX001 (ip), vehicle: Klucel (hydroxypropylcellulose) (HPC)): 108 % of control and 113 % of control

CCN(CC)CCNC(=O)C(=O)NCCN(CC)CC
T/C [1]: 97 % of control | T/C (dose: 100.0 mg/kg/injection, schedule: Q01DX005 (ip), vehicle: saline): 99 % of control

CC(=O)SCN1CCCCC1
T/C (dose: 12.5 mg/kg/injection, schedule: Q01DX009 (ip), vehicle: saline): 108 % of control | T/C (dose: 25.0 mg/kg/injection, schedule: Q01DX009 (ip), vehicle: saline): 108 % of control and 112 % of control | T/C (dose: 25.0 mg/kg/injection, schedule: Q04DX002 (ip), vehicle: saline): 110 % of control | T/C [3]: 102 % of control and 118 % of control | T/C (dose: 50.0 mg/kg/injection, schedule: Q04DX002 (ip), vehicle: saline): 112 % of control | T/C [4]: 108 % of control | T/C (dose: 100.0 mg/kg/injection, schedule: Q04DX002 (ip), vehicle: saline): 114 % of control and 116 % of control
